The values that follow come from paper PMC3084839, “Origin of Secretin Receptor Precedes the Advent of Tetrapoda: Evidence on the Separated Origins of Secretin and Orexin” (PLoS ONE, 2011).

Experiment [1] has as its system R. rugulosa pancreatic ductal cells. Description: cAMP production in primary culture of R. rugulosa pancreatic ductal cells. The class given is cell-based, Rana rugulosa. The following applies: positive control. The method, then: Adult male R. rugulosa was sacrificed by cervical decapitation. The freshly excised pancreas was removed and washed in Ringer solution (in mM, 85 NaCl, 4 KCl, 17.5 NaHCO3, 0.8 KH2PO4, 2 glucose, 1.5 CaCl2 and 0.8 MgCl2, pH 7.6). The excised pancreas was then minced into approximately 1 mm^3 pieces and digested at room temperature for 1 hr in the dissociation medium (Ringer solution supplemented with 0.2 mg/ml soy beans trypsin inhibitor (Sigma), 2 mg/ml BSA (Roche), 400 U/ml hyaluronidase (Sigma) and 50 U/ml collagenase (Sigma)). The tissue suspension was then washed with Ringer solution and small clusters of dissociated cells were filtered with the use of a 100-µm cell strainer (BD Falcon, US). Filtrate containing the undigested tissue, including the pancreatic ducts, was maintained in culture medium (80% Leibovitz's L-15 medium (Invitrogen) supplemented with 10% FBS and 100 U/ml Penicillin/[…] Streptomycin) in a humidified incubator at 24°C. […] The isolated pancreatic ductal cells were then used for cAMP stimulation in the presence of xSCT peptides and forskolin.
A general note: Cyclic AMP is a second messenger, typically raised through Gs and lowered through Gi signalling.

The target of experiment [2] is T1, lfSCTR (P. dolloi secretin receptor) (Protopterus dolloi, UniProt F8RUA8).
T1 sequence (F8RUA8 1-463): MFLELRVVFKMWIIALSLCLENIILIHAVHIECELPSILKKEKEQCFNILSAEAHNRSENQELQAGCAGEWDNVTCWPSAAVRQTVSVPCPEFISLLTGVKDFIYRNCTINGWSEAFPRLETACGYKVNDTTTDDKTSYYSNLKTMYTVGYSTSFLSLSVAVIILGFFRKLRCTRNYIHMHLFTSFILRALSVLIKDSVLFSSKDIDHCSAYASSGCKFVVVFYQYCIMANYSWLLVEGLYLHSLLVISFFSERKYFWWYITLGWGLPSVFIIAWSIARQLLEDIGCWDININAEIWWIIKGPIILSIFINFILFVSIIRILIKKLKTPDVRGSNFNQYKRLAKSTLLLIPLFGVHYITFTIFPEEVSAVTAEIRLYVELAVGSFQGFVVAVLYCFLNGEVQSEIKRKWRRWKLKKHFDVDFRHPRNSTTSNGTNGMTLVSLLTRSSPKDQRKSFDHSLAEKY
The experiment in a line: Intracellular cAMP production in lfSCTR-transfected CHO cells. The following applies: for [cAMP]i stimulation of lfSCTR at 100 nM: 100 nM peptide, lfSCTR-transfected CHO-K1 cells, P<0.001; for EC50: CHO cells transiently transfected with lfSCTR, graded peptide concentrations, LANCE cAMP assay, mean ± SEM, n = 4, read-out: [cAMP]i EC50, lfSCTR. The format is cell-based. From the text: (§1) Differences were considered significant when P<0.05.

In experiment [3] the target is T1, lfSCTR (P. dolloi secretin receptor). The experiment in a line: Intracellular calcium mobilization in lfSCTR-transfected CHO cells. The class given is cell-based. The following applies: lfSCTR-transfected CHO cells preloaded with Fluo-3; confocal imaging; at least 10 independent experiments; read-out: [Ca2+]i EC50, lfSCTR. How it is done:
(§2) For confocal calcium imaging, transiently transfected cells were plated at a density of 3000 cells/well in 24-well plates (Sigma-Aldrich, St. Louis, MO). After overnight incubation, cells were pre-loaded with 5 µM Fluo-3 acetoxymethyl ester (AM) (Sigma) for 45 min at 37°C in Tyrode solution consisting of (mM): 140 NaCl, 5 KCl, 1 MgCl2, 1 CaCl2, 10 glucose and 10 HEPES at pH 7.4. Calcium transient of single receptor-transfected CHO cell was recorded with a confocal imaging system (Olympus Fluoview System version 4.2 FV300 TIEMPO) mounted on an upright Olympus microscope (IX71). Peptides at concentrations ranging from 10^−5 to 10^−12 M were added at designated time point and calcium level was traced in a real-time manner using the Fluoview software (Olympus). […] For both assays, ionomycin (10 µM) was added at the end of each experiment to test the vitality of the cells.
as §1
Background: Calcium flux is commonly read through the fluorescence of an indicator in the cells.

For experiment [4], the target named is T2, xOX2R (Xenopus orexin type-2 receptor) (Xenopus laevis, UniProt F8RUB9).
T2 sequence (F8RUB9 1-440): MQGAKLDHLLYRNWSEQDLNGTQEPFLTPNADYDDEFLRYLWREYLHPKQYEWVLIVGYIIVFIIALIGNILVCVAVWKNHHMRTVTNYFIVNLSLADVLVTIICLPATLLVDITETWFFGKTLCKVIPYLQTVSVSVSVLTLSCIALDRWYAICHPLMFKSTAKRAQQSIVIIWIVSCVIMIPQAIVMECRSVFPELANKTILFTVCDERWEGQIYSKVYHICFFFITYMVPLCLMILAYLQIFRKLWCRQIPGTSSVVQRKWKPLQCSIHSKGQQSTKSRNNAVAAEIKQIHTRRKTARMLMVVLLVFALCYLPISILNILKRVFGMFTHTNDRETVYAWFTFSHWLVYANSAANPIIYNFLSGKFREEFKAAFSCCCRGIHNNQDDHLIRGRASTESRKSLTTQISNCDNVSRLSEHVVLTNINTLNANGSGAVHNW
The experiment in a line: Intracellular calcium mobilization in xOX2R-CHO cells. The class given is cell-based. The following applies: data not shown. The method, then:
as §2, §1

The test system of another experiment is orexin receptor. The following applies: rat anterior hypothalamus and orexin receptor-transfected cells; cited from earlier work. The text has this:
(§3) Orexins A and B [17] or hypocretins 1 and 2 [18] are peptides isolated from the rat hypothalamus in 1998 by two independent research groups. Both peptides are derived from the same precursor protein and are produced by differential proteolytic cleavage. Because the C-terminal portions of both orexin peptides resemble the N-terminal of secretin, orexins were proposed to have originated from secretin or the related peptides in the secretin/glucagon superfamily, [19]. This hypothesis was then examined by studying the bindings of these peptides with their receptors in mammals and conf ...

Another experiment has as its system human orexin receptors. As to conditions: cited from earlier work.
Source text: as §3

The subject of experiment [5] is human orexin type-2 receptor. The following applies: human orexin type-2 receptor-transfected CHO cells; cited from earlier work.
Source text: as §3

Where [6] appears, read: lfSCTR-CHO cells, micro-molar concentrations (10^-5 and 10^-6 M).

Ends that are not written are not given here.

In the case of `C=C[C@@]1(C)CC(=O)[C@]2(O)[C@@]3(C)[C@@H](O)CCC(C)(C)[C@@H]3[C@H](O)[C@H](OC(C)=O)[C@@]2(C)O1` [Forskolin], the “increase in cAMP level compared with the basal” value in experiment [1] is 20 fold.
Turning to `CC[C@H](C)[C@H](NC(=O)CNC(=O)[C@H](CC(=O)O)NC(=O)[C@H](CO)NC(=O)[C@@H](N)Cc1c[nH]cn1)C(=O)N[C@@H](Cc1ccccc1)C(=O)N[C@H](C(=O)N[C@@H](CC(=O)O)C(=O)N[C@@H](CO)C(=O)N[C@@H](Cc1ccc(O)cc1)C(=O)N[C@@H](CO)C(=O)N[C@@H](CCCNC(=N)N)C(=O)N[C@@H](Cc1ccc(O)cc1)C(=O)N[C@@H](CCCNC(=N)N)C(=O)N[C@@H](CCCCN)C(=O)N[C@@H](CCC(N)=O)C(=O)N[C@@H](CCSC)C(=O)N[C@@H](C)C(=O)N[C@H](C(=O)N[C@@H](CCCCN)C(=O)N[C@@H](CCCCN)C(=O)N[C@@H](Cc1ccc(O)cc1)C(=O)N[C@@H](CC(C)C)C(=O)N[C@@H](C)C(=O)N[C@@H](C)C(=O)N[C@H](C(=O)N[C@@H](CC(C)C)C(N)=O)C(C)C)C(C)C)[C@@H](C)O` [hPACAP27], the “[cAMP]i stimulation of lfSCTR at 100 nM” value in experiment [2] is recorded as “significantly stimulate”. Besides, the EC50 (in general, the concentration that produces a half-maximal response) amounted to 410 nM in experiment [2] and 25.6 nM in experiment [3].
Take `CC(C)C[C@H](NC(=O)CNC(=O)[C@H](CCC(N)=O)NC(=O)[C@H](CC(C)C)NC(=O)[C@H](CC(C)C)NC(=O)[C@H](CCCNC(=N)N)NC(=O)[C@H](CCC(N)=O)NC(=O)[C@H](CC(C)C)NC(=O)[C@H](CCCNC(=N)N)NC(=O)[C@H](C)NC(=O)CNC(=O)[C@H](CCC(=O)O)NC(=O)[C@H](CCCNC(=N)N)NC(=O)[C@H](CC(C)C)NC(=O)[C@H](CCCNC(=N)N)NC(=O)[C@H](CO)NC(=O)[C@H](CC(C)C)NC(=O)[C@H](CCC(=O)O)NC(=O)[C@H](CO)NC(=O)[C@@H](NC(=O)[C@H](Cc1ccccc1)NC(=O)[C@@H](NC(=O)CNC(=O)[C@H](CC(=O)O)NC(=O)[C@H](CO)NC(=O)[C@@H](N)Cc1c[nH]cn1)[C@@H](C)O)[C@@H](C)O)C(=O)N[C@H](C(N)=O)C(C)C` [hSCT]: in experiment [2], the “[cAMP]i stimulation of lfSCTR at 100 nM” value is on record as “significantly stimulate” and the EC50 is 790 nM. For the same molecule, in experiment [2] (setting [6]), the “efficacy of hSCT relative to hPACAP27 in triggering [cAMP]i” value is 5.0 fold and the “efficacy of hSCT relative to hVIP in triggering [cAMP]i” value is 3.6 fold. The EC50 in experiment [3] was 14.7 nM.
In the case of `CC[C@H](C)[C@H](NC(=O)[C@H](CO)NC(=O)[C@H](CC(N)=O)NC(=O)[C@H](CC(C)C)NC(=O)[C@H](Cc1ccc(O)cc1)NC(=O)[C@H](CCCCN)NC(=O)[C@H](CCCCN)NC(=O)[C@@H](NC(=O)[C@H](C)NC(=O)[C@H](CCSC)NC(=O)[C@H](CCC(N)=O)NC(=O)[C@H](CCCCN)NC(=O)[C@H](CCCNC(=N)N)NC(=O)[C@H](CC(C)C)NC(=O)[C@H](CCCNC(=N)N)NC(=O)[C@@H](NC(=O)[C@H](Cc1ccc(O)cc1)NC(=O)[C@H](CC(N)=O)NC(=O)[C@H](CC(=O)O)NC(=O)[C@@H](NC(=O)[C@H](Cc1ccccc1)NC(=O)[C@@H](NC(=O)[C@H](C)NC(=O)[C@H](CC(=O)O)NC(=O)[C@H](CO)NC(=O)[C@@H](N)Cc1c[nH]cn1)C(C)C)[C@@H](C)O)[C@@H](C)O)C(C)C)C(=O)N[C@@H](CC(C)C)C(=O)N[C@@H](CC(N)=O)C(N)=O` [hVIP], in experiment [2], the “[cAMP]i stimulation of lfSCTR at 100 nM” value was “significantly stimulate” and the EC50 worked out at 160 nM. Further, the EC50 in experiment [3] was determined as 10.3 nM.
“Human orexin A: human orexin A peptide (QPLPDCCRQKTCSCRLYELLHGAGNHAAGILTL; ends and bridges not checked; cysteine pairing not given here; UniProt O43612 34-66, looked up)”: the “[Ca2+]i response, xOX2R” value in experiment [4] is “able to induce calcium elevations”.
Same read-out and setting: next, Human orexin B: human orexin B peptide: “able to induce calcium elevations”.
As to “Porcine SCT: porcine secretin, literature result (HSDGTFTSELSRLRDSARLQRLLQGLV; ends and bridges not checked; UniProt P63298 33-59, looked up)”, the “displacement of [125I] orexin A binding” value in the experiment on orexin receptor was “found to displace”.
As for “SCT: secretin, species not stated, in cited human orexin receptor studies”, the “agonistic or antagonistic effects” value in the experiment with human orexin receptors is recorded as “neither agonistic nor antagonistic effects”. Moreover, in experiment [5], the calcium elevation entry is recorded as “unable” and the “displacement of [125I] orexin A” value was “unable to displace”.

B1: xSCT: 28-amino acid X. laevis secretin peptide cloned in this study, synthesized by one of the authors (protein)
chain: SSLPARSKRHVDGRFTSEFSRARGSAAIRKIINSALAGKRDIEENYQIDVPDVDNQREILKELAYNSLPELRSEEKQLTEQKAAEDLLCSAILNMLYRAPYQPLPAQSAQDYQGKNSSVEEVKHI
Consider B1, for which the values for the half-maximal effective concentration (EC50) in experiment [2] and in experiment [3] were 1820 nM and 273 nM, respectively.
